# According to article PMC8041433 (Environmental Health Perspectives, 2021):
# Values joined by “and” are separate entries in the source; they are usually repeats but may differ in a detail not shown here. Identical values can stand only once. Counter-ions that a name gives are not always drawn. Like-named read-outs stand apart in the source and are kept apart here.
# Legend:
# [1] = target: T1, recombinant human AChE (Homo sapiens, UniProt P22303); experiment: biochemical
# [2] = target: T1, recombinant human AChE; experiment: biochemical; assay type: biochemical; conditions: for AC50: AC50 (uM)
# [3] = target: AChE in neural stem cells (Homo sapiens, UniProt P22303); experiment: cell-based
# Chain of AChE in neural stem cells (P22303 32-614): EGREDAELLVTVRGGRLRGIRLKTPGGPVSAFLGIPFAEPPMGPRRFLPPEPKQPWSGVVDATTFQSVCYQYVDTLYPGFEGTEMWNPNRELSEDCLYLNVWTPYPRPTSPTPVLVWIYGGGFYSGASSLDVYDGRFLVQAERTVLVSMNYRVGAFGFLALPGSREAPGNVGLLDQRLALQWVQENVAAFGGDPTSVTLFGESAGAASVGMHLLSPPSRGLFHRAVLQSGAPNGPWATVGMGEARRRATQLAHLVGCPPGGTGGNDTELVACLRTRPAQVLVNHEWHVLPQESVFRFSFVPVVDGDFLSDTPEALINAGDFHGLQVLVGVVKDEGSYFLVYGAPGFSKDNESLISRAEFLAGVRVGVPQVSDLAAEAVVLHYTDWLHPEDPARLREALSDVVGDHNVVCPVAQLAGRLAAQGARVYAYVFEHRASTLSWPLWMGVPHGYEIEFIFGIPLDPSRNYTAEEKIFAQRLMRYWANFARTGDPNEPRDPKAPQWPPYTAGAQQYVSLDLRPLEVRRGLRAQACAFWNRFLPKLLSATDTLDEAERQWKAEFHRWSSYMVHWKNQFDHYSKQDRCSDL
# [4] = target: AChE in SH-SY5Y spheroids (Homo sapiens, UniProt P22303); experiment: cell-based; conditions: potency (IC50)
# Chain of AChE in SH-SY5Y spheroids (P22303 32-614): as above
# [5] = target: T1, recombinant human AChE; experiment: biochemical; remark: listed apart in the source
# [6] = target: T1, recombinant human AChE
# [7] = target: AChE in SH-SY5Y cells (Homo sapiens, UniProt P22303); experiment: cell-based
# Chain of AChE in SH-SY5Y cells (P22303 32-614): as above
# [8] = target: T1, recombinant human AChE; experiment: biochemical; remark: listed apart in the source
# [9] = target: AChE in neural stem cell spheroids (Homo sapiens, UniProt P22303); experiment: cell-based; conditions: for IC50: potency (IC50)
# Chain of AChE in neural stem cell spheroids (P22303 32-614): as above
# [10] = potency (IC50), Enzyme with microsomes
# [11] = potency (IC50), SH-SY5Y cells monolayer
# [12] = Neural stem cell spheroid (24 h)
# [13] = Neural stem cell spheroid (48 h)
# For IR or R in this document: key: Reversible (R); Irreversible (IR); ND, not detected in enzyme-based AChE inhibition assay from current study.
# T1 sequence (P22303 32-614): as above
SMILES,"IC50 [1, 10]",IC50 [3],IC50 ([4]; SH-SY5Y spheroids (24 h)),IC50 ([4]; SH-SY5Y spheroids (48 h)),CC-v2 (curve classes) [5],"IC50 ([5]; potency (IC50), Enzyme)",CC-v2 (curve classes) [6],CC-v2 (curve classes) [7],IC50 ([7]; IC50 (uM)),"IC50 [7, 11]",IC50 [8],"IC50 [9, 12]","IC50 [9, 13]",AC50 [2],"potency (IC50), Enzyme-based assay with heat-inactivated microsomes [8]",Efficacy [5],Efficacy [6],IR or R [2],also measured
CNC(=O)O/N=C(\SC)C(=O)N(C)C [Oxamyl],2.16 ± 0.36 µM,3.39 ± 0.22 µM,2.28 ± 0.63 µM,3.05 ± 0.52 µM,-1.1,1.74 ± 0.48 µM,-1.1,-1.1,1.55 µM and 1.42 µM and 1.23 µM,2.5 ± 0.28 µM,2.81 ± 0.32 µM,0.96 ± 0.38 µM,1.85 µM,,,,,,AC50 ([2]; activity_5): 3.95 µM and 4.44 µM and 3.52 µM; AC50 ([2]; activity_10): 2.8 µM and 3.52 µM and 2.5 µM; AC50 ([2]; activity_60): 0.703 µM and 1.57 µM and 1.25 µM
CCOP(=S)(OCC)Oc1ccc2c(C)c(Cl)c(=O)oc2c1 [Coumaphos],5.51 µM,22.6 µM,27.1 µM,20.6 µM,4 and -2.2 and -2.1,,,4 and -1.1 and -2.1,12.6 µM and 22.7 µM and 22.4 µM and 28.6 µM and 17.8 µM and 12.8 µM,,,21.1 µM,21.4 µM,24.3 µM and 27.3 µM,Inactive,,,,"AChE inhibition (result in words) [5]: did not show effects; potency (IC50), Enzyme [5]: Inactive; potency (IC50), SH-SY5Y cells monolayer [7]: Inactive"
"CN1C[C@H](CNC(=O)OCc2ccccc2)C[C@@H]2c3cccc4c3c(cn4C)C[C@H]21 [Metergoline, reference compound]",21.7 µM,13.2 ± 0.85 µM,1.73 ± 0.75 µM,4.17 ± 0.27 µM,,5.46 ± 1.98 µM,,,3.47 µM and 5.5 µM,4.85 µM,20.9 ± 1.36 µM,5.79 ± 1.63 µM,5.8 ± 1.64 µM,21.7 µM and 12.2 µM (3×) and 13.7 µM and 27.3 µM and 9.68 µM (2×) and 10.9 µM,,,,,
O=C(O)CC[N+](=O)[O-] [3-Nitropropionic acid],,,,,-2.1,,-2.2,,8.94 µM and 11.2 µM and 2.24 µM,,,,,,,-85.687,-41.028,,IC50 ([1]; IC50 (uM)): 71 µM; IC50 ([5]; IC50 (uM)): 28.3 µM
"CCc1ccc(C(=O)C(C)CN2CCCCC2)cc1.Cl (stereo not drawn) [Eperisone hydrochloride, reference compound]",38.7 µM,19.3 µM,,,-2.2,27.4 µM,4,-2.1,15.5 µM,25.3 µM,40.1 ± 2.71 µM,15 µM,13.3 µM,10.9 µM (3×) and 21.7 µM and 15.3 µM (2×) and 17.2 µM,,-46.815,0,R,
CCOP(=S)(OCC)SCSC(C)(C)C [Terbufos],4.27 µM,2.31 µM,2.19 µM,35.4 µM,4,,-2.1,,89.4 µM,,,1.83 µM,2.75 µM,,Inactive,0,,,"IC50 ([1]; IC50 (uM)): 56.4 µM and 40.2 µM; AChE inhibition (result in words) [5]: did not show effects; potency (IC50), Enzyme [5]: Inactive; potency (IC50), SH-SY5Y cells monolayer [7]: Inactive"
COP(N)(=S)Oc1ccccc1C(=O)OC(C)C (stereo not drawn) [Isocarbophos],8.21 µM,27.8 µM,,41.5 µM,4,,-1.1,,89.4 µM,54.3 ± 9.25 µM,55.9 µM,29.9 µM,23.1 µM,,,0,-89.537,,IC50 ([1]; IC50 (uM)): 2.83 µM; AChE inhibition (result in words) [5]: did not show effects
"CN1CCCC(n2nc(Cc3ccc(Cl)cc3)c3ccccc3c2=O)CC1 (stereo not drawn) [Azelastine (hydrochloride), reference compound]",27.4 µM,22.6 µM,13.8 µM,19.3 µM,,25.4 µM,,,,20.9 µM,36.6 ± 10.3 µM,,4.45 µM,27.3 µM (3×) and 24.3 µM (2×) and 30.6 µM (2×),,,,R,"potency (IC50), Neural stem cell spheroid (24 h) [9]: Inactive"
"[H]/N=C(\N/C(=N/[H])NCCCCCCNC(=N)NC(=N)Nc1ccc(Cl)cc1)Nc1ccc(Cl)cc1 [Chlorhexidine diacetate, reference compound]",,32.5 µM,36.1 µM,41 µM,-2.1,54.6 µM,4,-2.1,56.1 µM and 70.6 µM,70.9 µM,,8.31 µM,9.21 µM,78.5 µM,Inactive,-106.259,0,R,"IC50 ([5]; IC50 (uM)): 50 µM; potency (IC50), Enzyme with microsomes [6]: Inactive"
"COc1ccc(OC(F)(F)F)cc1CN[C@H]1CCCN[C@H]1c1ccccc1 [CP-122721, reference compound]",,,,,4,,4,4,,,,,,,Inactive,0,0,,"potency (IC50), Enzyme [5]: Inactive; potency (IC50), Enzyme with microsomes [6]: Inactive; potency (IC50), SH-SY5Y cells monolayer [7]: Inactive"
CCOP(=S)(OCC)Oc1cc(C)nc(C(C)C)n1 [Diazinon],22.6 ± 1.52 µM,0.41 ± 0.11 µM,19 ± 11.8 µM,20.1 ± 1.36 µM,,19.4 ± 2.22 µM,,4 and -2.1 and -1.1,,11.3 ± 1.44 µM,,0.04 ± 0.01 µM,0.09 ± 0.02 µM,6.85 µM and 30.6 µM and 10.9 µM and 24.3 µM,Inactive,,,,reversibility of AChE inhibition (result in words) [2]: irreversibility
"CCCCOc1ccc(C(=O)CCN2CCCCC2)cc1 [Dyclonine HCl, reference compound]",31 ± 6.49 µM,21.8 ± 2.5 µM,17.4 ± 3.65 µM,23.5 ± 3.24 µM,,20.9 ± 1.36 µM,,,,20.2 ± 2.57 µM,26.8 ± 10.1 µM,16.3 ± 7.64 µM,9.18 ± 9.47 µM,27.3 µM (3×) and 30.6 µM (3×) and 19.3 µM and 34.3 µM,,,,R,
CCOP(=S)(OCC)Oc1cnc2ccccc2n1 [Quinalphos],1.77 µM,7.48 µM,29.4 µM,46.2 µM,,55.9 µM,,-2.1 and 4,35.6 µM,46.4 µM,36.8 ± 4.7 µM,1.64 µM,2.94 µM,,,,,,AC50 ([2]; activity_60): 49.8 µM and 62.7 µM
